Assays:
[1] = tested on: MAP-rich tubulin; assay: Tubulin polymerization test with MAP-rich tubulin; assay type: biochemical, bovine; conditions: 0.3 μM compound, 20 min, fold enhancement over control
How it was run: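 Bovine brain MAP-rich tubulin (1.3 mg/mL) in PEM buffer pH 6.9 with 1 mM GTP, compounds at 0.3 μM final (0.3% DMSO), 24° for 60 min. Turbidity read at 340 nm each minute, baseline-subtracted; mean A340 at 20 min divided by solvent control gives fold enhancement.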

[2] = tested on: tubulin heterodimer; assay: Competitive binding test, [3H]vinblastine; design: species or system bovine; conditions: [3H]vinblastine 100 nM
Method: Medium is RPMI-1640 with L-glutamine, supplemented with 10% heat-inactivated fetal calf serum, 100 units/ml penicillin, and 100 μg/ml streptomycin (Gibco, Grand Island, N.Y.). Microtubule-associated protein (MAP)-rich tubulin, containing about 70% tubulin and 30% MAPs (#ML113), and highly purified tubulin (>99% pure, #TL238), both from bovine brain, are obtained from Cytoskeleton, Inc., Denver, Colo. PEM buffer (80 mM piperazine-N,N′-bis[2-ethanesulfonic acid], pH 6.9, 1 mM ethylene glycol-bis(β-aminoethyl ether)-N,N,N′,N′-tetraacetic acid, 1 mM magnesium chloride) and guanosine 5′-triphosphate (GTP) are also obtained from Cytoskeleton. [3H]paclitaxel, specific activity 14.7 Ci/mmol, is purchased from Moravek Biochemicals (Brea, Calif.). [^3H]vinblastine, specific activity 9.60 Ci/mmol and MicroSpin G-50 columns are obtained from Amersham Biosciences (Piscataway, N.J.). […] Other reagents are obtained from Sigma (St. Louis, Mo.).
The binding of examples of this invention to highly purified tubulin is studied by competitive inhibition methods. […] To study possible competition at the taxane site, on the other hand, polymerized tubulin (microtubules) is used because paclitaxel binds preferentially to microtubules.
Highly purified tubulin is dissolved in PEM buffer without GTP and used at a final concentration of 1.0 to 1.3 mg/ml (10 to 13 μM). […] These solutions are incubated at 24° for 1 hr and then applied to MicroSpin G-50 columns which are centrifuged for 2 min at 3000 rpm in an Eppendorf 5415C microfuge. An aliquot of each column effluent (containing tubulin and bound radioligand) is mixed with scintillation fluid and counted in a liquid scintillation spectrometer. […] The ability of the competitor to inhibit the binding of the radioligand is expressed as a percentage of control binding in the absence of any competitor.

[3] = tested on: HeLa cells; assay: Cell cycle analysis with HeLa cells; assay type: cell-based, human; conditions: 18 hr
Method: HeLa cells are harvested by trypsinization, washed, counted and distributed to wells of 12-well plates at 125,000 cells per well in 2 mL medium. Cells are cultured overnight. […] Cells are continued in culture for 18 hr after compound addition, then cells in each well are harvested (taking care to recover both adherent and non-adherent cells) and processed using the CycleTEST PLUS kit (Becton Dickinson Immunocytometry Systems, San Jose, Calif.). Flow cytometry is done with a FACSort instrument (Becton Dickinson).
This procedure measures the percentages of cells in a population that are in the G1, S, and G2/M phases of the cell cycle. It utilizes staining of cell nuclei with propidium iodide and analysis by flow cytometry.

CC(=O)O[C@H]1C(=O)[C@@]2(C)[C@H]([C@H](OC(=O)c3ccccc3)[C@]3(O)C[C@H](OC(=O)[C@H](O)[C@@H](NC(=O)c4ccccc4)c4ccccc4)C(C)=C1C3(C)C)[C@]1(OC(C)=O)CO[C@@H]1C[C@@H]2O [Paclitaxel, reference compound]
A340 Compound/A340 Control [1]: 8.5
[3H]Vinblastine binding, percent of control without competitor, Mean [2]: 92%

CNCCCOc1cc(F)c(-c2c(Cl)nc3ncnn3c2N[C@@H](C)C(F)(F)F)c(F)c1.Cl [Example 2a, 5-Chloro-6-{2,6-difluoro-4-[3-(methylamino)propoxy]phenyl}-N-[(1S)-2,2,2-trifluoro-1-methylethyl][1,2,4]triazolo[1,5-a]pyrimidin-7-amine hydrogen chloride]
Percent in Cell Cycle Phase >4N ([3]; 20 nM): 2%
Percent in Cell Cycle Phase Apop ([3]; 20 nM): 28%
Percent in Cell Cycle Phase G1 ([3]; 20 nM): 41%
Percent in Cell Cycle Phase G2/M ([3]; 20 nM): 16%
Percent in Cell Cycle Phase S ([3]; 20 nM): 14%
Percent in Cell Cycle Phase >4N ([3]; 30 nM): 2%
Percent in Cell Cycle Phase Apop ([3]; 30 nM): 62%
Percent in Cell Cycle Phase G1 ([3]; 30 nM): 12%
Percent in Cell Cycle Phase G2/M ([3]; 30 nM): 16%
Percent in Cell Cycle Phase S ([3]; 30 nM): 10%
Percent in Cell Cycle Phase >4N ([3]; 40 nM): 2%
Percent in Cell Cycle Phase Apop ([3]; 40 nM): 44%
Percent in Cell Cycle Phase G1 ([3]; 40 nM): 5%
Percent in Cell Cycle Phase G2/M ([3]; 40 nM): 39%
Percent in Cell Cycle Phase S ([3]; 40 nM): 9%
Percent in Cell Cycle Phase >4N ([3]; 50 nM): 4%
Percent in Cell Cycle Phase Apop ([3]; 50 nM): 25%
Percent in Cell Cycle Phase G1 ([3]; 50 nM): 5%
Percent in Cell Cycle Phase G2/M ([3]; 50 nM): 58%
Percent in Cell Cycle Phase S ([3]; 50 nM): 9%
Percent in Cell Cycle Phase >4N ([3]; 60 nM): 4%
Percent in Cell Cycle Phase Apop ([3]; 60 nM): 24%
Percent in Cell Cycle Phase G1 ([3]; 60 nM): 4%
Percent in Cell Cycle Phase G2/M ([3]; 60 nM): 58%
Percent in Cell Cycle Phase S ([3]; 60 nM): 9%
Percent in Cell Cycle Phase >4N ([3]; 70 nM): 4%
Percent in Cell Cycle Phase Apop ([3]; 70 nM): 22%
Percent in Cell Cycle Phase G1 ([3]; 70 nM): 6%
Percent in Cell Cycle Phase G2/M ([3]; 70 nM): 57%
Percent in Cell Cycle Phase S ([3]; 70 nM): 11%
Percent in Cell Cycle Phase >4N ([3]; 80 nM): 4%
Percent in Cell Cycle Phase Apop ([3]; 80 nM): 26%
Percent in Cell Cycle Phase G1 ([3]; 80 nM): 7%
Percent in Cell Cycle Phase G2/M ([3]; 80 nM): 52%
Percent in Cell Cycle Phase S ([3]; 80 nM): 11%
Percent in Cell Cycle Phase >4N ([3]; 90 nM): 4%
Percent in Cell Cycle Phase Apop ([3]; 90 nM): 30%
Percent in Cell Cycle Phase G1 ([3]; 90 nM): 7%
Percent in Cell Cycle Phase G2/M ([3]; 90 nM): 46%
Percent in Cell Cycle Phase S ([3]; 90 nM): 13%
Percent in Cell Cycle Phase >4N ([3]; 100 nM): 4%
Percent in Cell Cycle Phase Apop ([3]; 100 nM): 34%
Percent in Cell Cycle Phase G1 ([3]; 100 nM): 7%
Percent in Cell Cycle Phase G2/M ([3]; 100 nM): 41%
Percent in Cell Cycle Phase S ([3]; 100 nM): 15%
Percent in Cell Cycle Phase >4N ([3]; 110 nM): 4%
Percent in Cell Cycle Phase Apop ([3]; 110 nM): 37%
Percent in Cell Cycle Phase G1 ([3]; 110 nM): 9%
Percent in Cell Cycle Phase G2/M ([3]; 110 nM): 37%
Percent in Cell Cycle Phase S ([3]; 110 nM): 14%
Percent in Cell Cycle Phase >4N ([3]; 120 nM): 4%
Percent in Cell Cycle Phase Apop ([3]; 120 nM): 39%
Percent in Cell Cycle Phase G1 ([3]; 120 nM): 8%
Percent in Cell Cycle Phase G2/M ([3]; 120 nM): 36%
Percent in Cell Cycle Phase S ([3]; 120 nM): 15%
[3H]Vinblastine binding, percent of control without competitor, Mean [2]: 11%

C[C@H](Nc1c(-c2c(F)cc(OCCCN(C)C)cc2F)c(Br)nc2ncnn12)C(F)(F)F [Example 25, 5-Bromo-6-{4-[3-(dimethylamino)propoxy]-2,6-difluorophenyl}-N-[(1S)-2,2,2-trifluoro-1-methylethyl][1,2,4]triazolo[1,5-a]pyrimidin-7-amine]
A340 Compound/A340 Control [1]: 7.2
[3H]Vinblastine binding, percent of control without competitor, Mean [2]: 14%

— US7507739B2, “6-[(substituted)phenyl]triazolopyrimidines as anticancer agents” (Wyeth, priority 2003, dated 2009)
